Assays:
[1] = target: T1, Vitamin D3 receptor (Homo sapiens) (UniProt P11473); test: Agonist activity at human VDR expressed in HOS cells co-expressing human RXR at 0.00001 to 10 uM by Dual-Glo luciferase reporter gene assay relative to 1alpha,25(OH)2D3; assay type: cell-based
T1 sequence (whole entry): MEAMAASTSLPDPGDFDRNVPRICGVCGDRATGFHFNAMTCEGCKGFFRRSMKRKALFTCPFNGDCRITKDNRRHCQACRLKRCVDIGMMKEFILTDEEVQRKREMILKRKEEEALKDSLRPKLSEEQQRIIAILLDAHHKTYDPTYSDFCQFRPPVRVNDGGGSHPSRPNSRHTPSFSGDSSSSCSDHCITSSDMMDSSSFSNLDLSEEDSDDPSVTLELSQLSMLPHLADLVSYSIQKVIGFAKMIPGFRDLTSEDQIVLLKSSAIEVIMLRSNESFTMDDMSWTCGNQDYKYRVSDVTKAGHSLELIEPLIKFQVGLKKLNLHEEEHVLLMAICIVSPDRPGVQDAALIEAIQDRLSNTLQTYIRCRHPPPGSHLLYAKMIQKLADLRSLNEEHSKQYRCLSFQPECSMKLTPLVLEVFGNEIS

[2] = target: T2, Vitamin D3 receptor (Homo sapiens, UniProt P11473); test: Agonist activity at human VDR expressed in HOS cells co-expressing human RXR by Dual-Glo luciferase reporter gene assay; assay type: cell-based
T2 sequence (P11473 whole entry): T1 sequence (whole entry)

Compound	Emax [1]	EC50 [2]
CCC(O)(CC)COc1ccc(C(CC)(CC)c2ccc(OCC(CO)CO)c(C)c2)cc1C	100%	9.26 nM
CCC(O)(CC)COc1ccc(C(CC)(CC)c2ccc(OC[C@@H](O)CO)c(C)c2)cc1C	90%	18 nM
CCC(CC)(c1ccc(OCCC(C)(C)O)c(C)c1)c1ccc(OCC(CO)CO)c(C)c1	91%	76.9 nM
CCC(CC)(c1ccc(OCCC(C)(C)O)c(C)c1)c1ccc(OC[C@@H](O)CO)c(C)c1	100%	41.7 nM
CCC(CC)(c1ccc(OC[C@@H](O)CO)c(C)c1)c1ccc(OCC(C)(C)O)c(C)c1	67%	163 nM
CCC(O)(CC)COc1ccc(C(CC)(CC)c2ccc(OC(CO)CO)c(C)c2)cc1C	100%	17.2 nM
CCC(CC)(c1ccc(OCC(CO)CO)c(C)c1)c1ccc(OCC(C)(C)O)c(C)c1	91%	76.5 nM
